Laboratory results taken from ChEMBL document CHEMBL1149281, “Structure-activity relationship of 6-methylidene penems bearing tricyclic heterocycles as broad-spectrum beta-lactamase inhibitors: crystallographic structures show unexpected binding of 1,4-thiazepine intermediates” (J Med Chem, 2004).

What was measured:
Escherichia coli [1] = test: Antimicrobial activity against Escherichia coli GC 2252 expressing IRT2 in presence of 4 ug/mL piperacillin; type: functional
[2] = molecular target: Metallo-beta-lactamase type 2 (Bacteroides fragilis, UniProt P25910); test: Inhibition of Bacteroides fragilis CcrA
Beta-lactamase TEM = Beta-lactamase TEM (Escherichia coli, UniProt P62593); test: Inhibition of Escherichia coli TEM1
Beta-lactamase = Beta-lactamase (Enterobacter cloacae, UniProt P05364)
Description: Inhibition of Enterobacter cloacae AmpC

Escherichia coli [3] = test: Antimicrobial activity against Escherichia coli GC 2804 expressing Imp in presence of 4 ug/mL piperacillin; type: functional
Staphylococcus aureus = test: Antimicrobial activity against Staphylococcus aureus GC 2216 in presence of 4 ug/mL piperacillin; type: functional
Enterobacter cloacae [4] = test: Antimicrobial activity against Enterobacter cloacae GC 2071 expressing Imi1 and AmpC in presence of 4 ug/mL piperacillin; type: functional
Serratia marcescens [5] = test: Antimicrobial activity against Serratia marcescens GC 1781 expressing Sme1 and AmpC in presence of 4 ug/mL piperacillin; type: functional
Klebsiella pneumoniae = test: Antimicrobial activity against Klebsiella pneumoniae GC 2825 in presence of 4 ug/mL piperacillin; type: functional
Escherichia coli [6] = test: Antimicrobial activity against Escherichia coli GC 2847 expressing TEM1 in presence of 4 ug/mL piperacillin; type: functional
Escherichia coli [7] = test: Antimicrobial activity against Escherichia coli GC 2203 in presence of 4 ug/mL piperacillin; type: functional
Enterobacter cloacae [8] = test: Antimicrobial activity against Enterobacter cloacae GC 1477 expressing AmpC in presence of 4 ug/mL piperacillin; type: functional
Escherichia coli [9] = test: Antimicrobial activity against Escherichia coli GC 2844 in presence of 4 ug/mL piperacillin; type: functional
Pseudomonas aeruginosa = test: Antimicrobial activity against Pseudomonas aeruginosa GC 1764 expressing AmpC in presence of 4 ug/mL piperacillin; type: functional
Escherichia coli [10] = test: Antimicrobial activity against Escherichia coli GC 2805 expressing CcrA in presence of 4 ug/mL piperacillin; type: functional
Enterobacter cloacae [11] = test: Antimicrobial activity against Enterobacter cloacae GC 1475 expressing P99 in presence of 4 ug/mL piperacillin; type: functional
Escherichia coli [12] = test: Antimicrobial activity against Escherichia coli GC 2920 expressing IRT2 in presence of 4 ug/mL piperacillin; type: functional
Serratia marcescens [13] = test: Antimicrobial activity against Serratia marcescens GC 4142 expressing AmpC in presence of 4 ug/mL piperacillin; type: functional
Beta-lactamase SHV-1 = molecular target: T1, Beta-lactamase SHV-1 (Escherichia coli, UniProt P0AD63); test: Inhibition of Escherichia coli SHV1
T1 sequence (P0AD63 whole entry): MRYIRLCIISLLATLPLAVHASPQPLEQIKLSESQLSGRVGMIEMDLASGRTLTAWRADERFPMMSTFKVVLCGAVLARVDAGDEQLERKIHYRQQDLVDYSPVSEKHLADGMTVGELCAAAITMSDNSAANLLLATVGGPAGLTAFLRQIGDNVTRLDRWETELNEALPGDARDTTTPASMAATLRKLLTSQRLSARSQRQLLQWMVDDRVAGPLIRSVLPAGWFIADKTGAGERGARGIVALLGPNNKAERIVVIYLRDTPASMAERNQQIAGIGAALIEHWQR

[14] = Inhibition of Enterobacter cloacae class C beta lactamase GC1

Sequence of Beta-lactamase TEM (P62593 whole entry): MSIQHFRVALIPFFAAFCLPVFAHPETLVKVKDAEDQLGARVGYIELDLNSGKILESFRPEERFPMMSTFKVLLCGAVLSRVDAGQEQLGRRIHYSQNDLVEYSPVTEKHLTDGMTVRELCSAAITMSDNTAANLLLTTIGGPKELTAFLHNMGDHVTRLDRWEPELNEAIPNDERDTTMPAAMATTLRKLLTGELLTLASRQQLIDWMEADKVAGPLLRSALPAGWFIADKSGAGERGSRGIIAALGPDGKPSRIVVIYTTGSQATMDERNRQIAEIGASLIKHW
Sequence of Metallo-beta-lactamase type 2 (P25910 whole entry): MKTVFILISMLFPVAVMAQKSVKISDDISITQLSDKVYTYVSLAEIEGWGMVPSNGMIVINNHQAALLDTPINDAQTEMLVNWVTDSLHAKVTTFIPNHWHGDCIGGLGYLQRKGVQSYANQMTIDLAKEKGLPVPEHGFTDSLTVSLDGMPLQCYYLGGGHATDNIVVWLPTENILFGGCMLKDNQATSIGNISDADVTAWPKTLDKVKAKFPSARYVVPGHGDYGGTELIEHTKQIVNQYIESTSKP
Sequence of Beta-lactamase (P05364 whole entry): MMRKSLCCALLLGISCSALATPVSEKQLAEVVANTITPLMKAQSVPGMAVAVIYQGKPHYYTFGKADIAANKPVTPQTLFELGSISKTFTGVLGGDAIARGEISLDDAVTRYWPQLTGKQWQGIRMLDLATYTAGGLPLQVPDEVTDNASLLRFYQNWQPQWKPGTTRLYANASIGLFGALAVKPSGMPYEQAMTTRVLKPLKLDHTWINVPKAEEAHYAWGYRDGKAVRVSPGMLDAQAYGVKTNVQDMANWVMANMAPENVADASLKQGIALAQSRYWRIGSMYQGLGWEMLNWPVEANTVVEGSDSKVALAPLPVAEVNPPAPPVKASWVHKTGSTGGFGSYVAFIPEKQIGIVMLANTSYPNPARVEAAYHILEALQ

Compound | MIC (Escherichia coli [1]) [µg/mL] | IC50 [2] [nM] | IC50 (Beta-lactamase TEM) [nM] | IC50 (Beta-lactamase) [nM] | MIC (Escherichia coli [3]) [µg/mL] | MIC (Staphylococcus aureus) [µg/mL] | MIC (Enterobacter cloacae [4]) [µg/mL] | MIC (Serratia marcescens [5]) [µg/mL] | MIC (Klebsiella pneumoniae) [µg/mL] | MIC (Escherichia coli [6]) [µg/mL] | MIC (Escherichia coli [7]) [µg/mL] | MIC (Enterobacter cloacae [8]) [µg/mL] | MIC (Escherichia coli [9]) [µg/mL] | MIC (Pseudomonas aeruginosa) [µg/mL] | MIC (Escherichia coli [10]) [µg/mL] | MIC (Enterobacter cloacae [11]) [µg/mL] | MIC (Escherichia coli [12]) [µg/mL] | MIC (Serratia marcescens [13]) [µg/mL] | IC50 (Beta-lactamase SHV-1) [nM] | IC50 [14] [nM]
Cc1ccc2c(c1)sc1nc(/C=C3/C(=O)N4C(C(=O)[O-])=CS[C@H]34)cn12.[Na+] | 16 | 103 | 3 | 1 | < 0.06 | < 0.06 | 8 | 0.5 | 8 | 4 | 1 | 32 | 2 | 16 | > 64 | 8 | 2 | 1 | – | –
Cc1cccc2sc3nc(/C=C4/C(=O)N5C(C(=O)[O-])=CS[C@H]45)cn3c12.[Na+] | 16 | 370 | 9 | 2 | < 0.06 | < 0.06 | 16 | 4 | 16 | 8 | 2 | 32 | 2 | 2 | > 64 | 16 | 2 | 4 | – | –
O=C([O-])C1=CS[C@@H]2/C(=C\c3cn4c(n3)sc3cc(Cl)ccc34)C(=O)N12.[Na+] | 16 | 74 | 6 | 3 | < 0.06 | < 0.06 | 8 | 1 | 32 | 4 | 1 | 16 | 2 | 16 | > 64 | 8 | 1 | 2 | – | –
O=C([O-])C1=CS[C@@H]2/C(=C\c3cn4c(n3)sc3ccccc34)C(=O)N12.[Na+] | 8 | – | – | 1 | < 0.06 | < 0.06 | 2 | 0.5 | 16 | 2 | 2 | 16 | 2 | 4 | > 64 | 8 | 2 | 1 | – | –
COc1ccc2c(c1)sc1nc(/C=C3/C(=O)N4C(C(=O)[O-])=CS[C@H]34)cn12.[Na+] | 8 | – | – | 2 | < 0.06 | < 0.06 | 16 | 2 | 64 | 16 | 1 | 64 | 2 | 32 | > 64 | 16 | 2 | 2 | – | –
C[C@]1(Cn2ccnn2)[C@H](C(=O)[O-])N2C(=O)C[C@H]2S1(=O)=O.[Na+] [TAZOBACTAM SODIUM] | 2 | – | – | – | 0.12 | 64 | > 64 | 1 | > 64 | 2 | > 64 | > 64 | 2 | > 64 | > 64 | > 64 | 4 | > 64 | – | –
O=C([O-])C1=CS[C@@H]2/C(=C\c3cn4c(n3)sc3cc(F)ccc34)C(=O)N12.[Na+] | 16 | – | 8 | 2 | < 0.06 | < 0.06 | 8 | 2 | 16 | 8 | 2 | 32 | 2 | 4 | > 64 | 16 | 2 | 2 | – | –
O=C([O-])C1=CS[C@@H]2/C(=C\c3cn4c5c(sc4n3)CCC5)C(=O)N12.[Na+] | 8 | – | – | 2 | < 0.06 | 2 | 4 | 1 | 4 | 4 | 2 | 16 | 2 | 2 | > 64 | 16 | 2 | 2 | 12 | 3.8
